According to patent US9828352B2, “Phenyl carbamates and their use as inhibitors of the fatty acid amide hydrolase (FAAH) enzyme and modulators of the D3 dopamine receptor (D3DR)” (FONDAZIONE ISTITUTO ITALIANO DI TECNOLOGIA, priority 2013, dated 2017):
Counter-ions that a name gives are not always drawn.

Tests used:
[1] = target: T1, human-D3R (Homo sapiens, UniProt P35462); assay: D3 Dopamine Receptor (D3dR) cellular assay, cAMP HTRF functional assay in human-D3R expressing CHO cells; assay type: cell-based; settings: for Emax: CHO, 0.5 h, % of 300 nM Dopamine response, read-out: Dopamine D3 % of Agonist Activity; for EC50: cAMP assay, CHO human-D3R, one experiment in duplicate
T1 construct: expressed in transfected cells; host or cells: CHO cell line stably transfected with human D3R
Protocol: D3 Dopamine Receptor (D3dR) Cellular Assay
Activity on D3R was tested with a cAMP functional assay on a stably transfected human-D3R expressing CHO cell line. On the day of the assay performance the cells were washed twice with PBS (w/o calcium and magnesium) and dislodged with a cell scraper, transferred to PBS, centrifuged and re-suspended in HBSS (w/o calcium and magnesium), supplemented with 1 g/L glucose and […] IBMX. The cell suspension was seeded on a 384 well plate (Greiner) and the assay was performed by adding compounds either test compounds alone (for agonist activity), or with test compound after a pre-incubation with 10 nM Dopamine as a stimulant (for antagonistic activity). After incubation (30 min at RT) the cell stimulation was stopped by adding the detecting reagents (cAMP-XL665 and anti-cAMP cryptate) diluted in lysis buffer. The signal was quantified by Homogenous Time-Resolved Fluorescence (HTRF) on a Perkin Elmer Envision plate reader after one hour of incubation at RT.
(§1) EC50 or IC50 values (concentrations causing half-maximal response or inhibition of control agonist response) were determined by non-linear regression analysis of the Log [concentration]/response curves generated with mean replicate values using a four parameter Hill equation curve fitting with GraphPad Prism 5 (GraphPad Software Inc., CA—USA).

[2] = target: T2, human FAAH-1 (Homo sapiens, UniProt O00519); assay: Human recombinant Fatty Acid Amide Hydrolase-1 (FAAH-1) fluorescent assay, Hek293-hFAAH-1 membranes; assay type: biochemical; settings: 3 separate experiments, each in triplicate
T2 construct: expressed in transfected cells; host or cells: Hek293 cells stably transfected with human FAAH-1; membrane preparation
T2 sequence (O00519 1-579): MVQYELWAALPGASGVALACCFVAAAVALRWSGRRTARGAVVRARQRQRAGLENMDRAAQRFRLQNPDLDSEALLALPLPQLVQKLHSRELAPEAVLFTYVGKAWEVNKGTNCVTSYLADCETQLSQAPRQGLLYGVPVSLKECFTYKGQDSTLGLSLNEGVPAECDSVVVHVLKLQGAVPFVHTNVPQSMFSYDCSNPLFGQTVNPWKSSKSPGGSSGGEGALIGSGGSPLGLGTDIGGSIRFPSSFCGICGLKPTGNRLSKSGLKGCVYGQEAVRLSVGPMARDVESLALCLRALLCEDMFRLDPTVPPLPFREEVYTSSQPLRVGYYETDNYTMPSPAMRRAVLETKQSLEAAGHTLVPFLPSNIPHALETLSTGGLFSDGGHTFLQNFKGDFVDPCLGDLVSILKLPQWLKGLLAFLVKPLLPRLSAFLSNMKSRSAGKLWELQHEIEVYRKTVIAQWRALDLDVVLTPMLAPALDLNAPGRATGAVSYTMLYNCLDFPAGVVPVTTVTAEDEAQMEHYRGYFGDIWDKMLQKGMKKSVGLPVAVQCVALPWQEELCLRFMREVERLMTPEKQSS
Protocol: Human Recombinant Fatty Acid Amide Hydrolase-1 (FAAH-1) Fluorescent Assay
Hek293 cells stably transfected with human FAAH-1 were maintained in DMEM containing 10% FBS, 1% pen/strep and 500 μg/mL G418 to maintain selective pressure. Cells were scraped off with cold PBS1× pH7.4 from plates and collected by centrifugation (500 g, 10 minutes, 4° C.); cells pellets were re-suspended in homogenizing buffer (20 mM Tris-HCl pH7.4, 0.32M sucrose), disrupted by sonication (10 pulses, 5 times) and centrifuged at 800×g for 15 minutes at 4° C.; the resultant supernatants collected were then centrifuged at 105,000×g for 1 hr at 4° C. and membranes pellets were re-suspended in PBS1× pH7.4.
Protein concentration was measured and samples aliquot stored at −80° C. until use.
The blank (no activity) was prepared using 180 μL of assay buffer without Hek293-hFAAH-1 membrane preparation and 10 μL of DMSO.
After 50 minutes of pre-incubation of compounds with the enzyme at 37° C., the reaction was started by the addition of 10 μL of substrate (AMC Arachidonyl Amide, N.10005098, Cayman Chemical) for 30 min at 37° C. The substrate is prepared in Ethanol in order to achieve the final concentration of 2 μM.
Fluorescence was detected with Tecan Infinite M200 nanoquant (Tecan Group Ltd.) at an excitation wavelength 350 nm and an emission wavelength 460 nm.
as §1

T1 sequence (P35462 whole entry): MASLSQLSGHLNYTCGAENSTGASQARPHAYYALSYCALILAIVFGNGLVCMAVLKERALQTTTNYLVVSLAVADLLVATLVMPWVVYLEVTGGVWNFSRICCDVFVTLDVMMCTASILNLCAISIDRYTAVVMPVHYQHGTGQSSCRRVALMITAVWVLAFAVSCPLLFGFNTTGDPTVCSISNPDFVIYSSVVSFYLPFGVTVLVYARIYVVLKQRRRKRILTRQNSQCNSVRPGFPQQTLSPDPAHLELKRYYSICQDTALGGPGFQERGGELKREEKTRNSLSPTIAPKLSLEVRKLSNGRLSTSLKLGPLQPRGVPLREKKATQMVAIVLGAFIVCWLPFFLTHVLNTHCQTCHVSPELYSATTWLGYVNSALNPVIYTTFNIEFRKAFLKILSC

**Q.** For O=C(NCCCN1CCN(c2ccccc2C(F)(F)F)CC1)Oc1ccc(-c2ccccc2)cc1 [Example 16, (4-phenylphenyl) N-[3-[4-[2-(trifluoromethyl)phenyl]piperazin-1-yl]propyl] carbamate], which Emax [1] is on record?
**A.** Its Emax is 95.4%.

**Q.** What about the EC50 [1] of the same molecule?
**A.** Its EC50 is 300 nM.

**Q.** What about the IC50 [2] of the same molecule?
**A.** Its IC50 is 12 nM.

**Q.** What does the source list for COc1cc(OC(=O)NCCCN2CCN(c3ccccc3OC)CC2)ccc1-c1ccccc1 [Example 37, (3-methoxy-4-phenyl-phenyl) N-[3-[4-(2-methoxyphenyl)piperazin-1-yl]propyl] carbamate hydrochloride]?
**A.** Emax [1]: 73.5%; EC50 [1]: 38 nM; IC50 [2]: 7.8 nM

**Q.** With O=C(NCCCCN1CCN(c2cccc(Cl)c2Cl)CC1)Oc1ccc(N2CCC(F)(F)CC2)cc1 [Example 12, [4-(4,4-difluoro-1-piperidinyl)phenyl] N-[4-[4-(2,3-dichlorophenyl)piperazin-1-yl]butyl]carbamate hydrochloride] as the molecule, how does the Emax [1] read?
**A.** The Emax was 90.7%.

**Q.** What about the EC50 [1] of the same molecule?
**A.** Its EC50 is 49 nM.

**Q.** What about the IC50 [2] of the same molecule?
**A.** The IC50 was 9.9 nM.

**Q.** How did the Emax [1] turn out when NC(=O)c1cccc(-c2cccc(OC(=O)NCCCCN3CCC(c4ccccc4)CC3)c2)c1 [Example 14, [3-(3-carbamoylphenyl)phenyl] N-[4-(4-phenyl-1-piperidinyl)butyl]carbamate hydrochloride] was run?
**A.** The Emax was 74.3%.

**Q.** What about the EC50 [1] of the same molecule?
**A.** The EC50 was 36 nM.

**Q.** What about the IC50 [2] of the same molecule?
**A.** Its IC50 is 9.6 nM.

**Q.** Which results are given for NC(=O)c1cccc(-c2ccc(OC(=O)NCCCCN3CCN(c4cccc(Cl)c4Cl)CC3)cc2F)c1 [Example 21, [4-(3-carbamoylphenyl)-3-fluoro-phenyl] N-[4-[4-(2,3-dichlorophenyl)piperazin-1-yl]butyl]carbamate]?
**A.** Emax [1]: 69.4%; IC50 [2]: 0.96 nM

**Q.** How did the Emax [1] turn out when NC(=O)c1cccc(-c2ccc(OC(=O)NCCCCN3CCN(c4ccccc4)CC3)cc2)c1 [Example 25, [4-(3-carbamoylphenyl)phenyl] N-[4-(4-phenylpiperazin-1-yl)butyl]carbamate] was run?
**A.** The Emax was 87.5%.

**Q.** What about the EC50 [1] of the same molecule?
**A.** Its EC50 is 3.6 nM.

**Q.** What about the IC50 [2] of the same molecule?
**A.** Its IC50 is 3.5 nM.

**Q.** What does the source list for COc1ccccc1N1CCN(CCCCNC(=O)Oc2ccc(C(=O)c3ccccc3)cc2)CC1 [Example 45, (4-benzoylphenyl) N-[4-[4-(2-methoxyphenyl)piperazin-1-yl]butyl]carbamate hydrochloride]?
**A.** Emax [1]: 51.4%; EC50 [1]: 29 nM; IC50 [2]: 5.3 nM

**Q.** For O=C(NCC(CF)N1CCN(c2cccc(Cl)c2Cl)CC1)Oc1ccc(-c2ccccc2)cc1 (centres unmarked) [Example 41, (4-phenylphenyl) N-[2-[4-(2,3-dichlorophenyl)piperazin-1-yl]-3-fluoro-propyl] carbamate hydrochloride], which IC50 [2] is on record?
**A.** Its IC50 is 9.9 nM.

**Q.** How did the Emax [1] turn out when O=C(NCCCN1CCN(c2ccccc2C(F)(F)F)CC1)Oc1ccc(N2CCC(F)(F)CC2)cc1 [Example 18, [4-(4,4-difluoro-1-piperidinyl)phenyl] N-[3-[4-[2-(trifluoromethyl)phenyl]piperazin-1-yl]propyl]carbamate hydrochloride] was run?
**A.** The Emax was 86%.

**Q.** And the EC50 [1]?
**A.** The EC50 was 190 nM.

**Q.** And the IC50 [2]?
**A.** Its IC50 is 28 nM.

**Q.** For O=C(NCCCCN1CCN(c2cccc(Cl)c2Cl)CC1)Oc1cccc(N2CCC(F)(F)CC2)c1 [Example 9, [3-(4,4-difluoro-1-piperidinyl)phenyl] N-[4-[4-(2,3-dichlorophenyl)piperazin-1-yl]butyl]carbamate hydrochloride], which Emax [1] is on record?
**A.** Its Emax is 54.7%.

**Q.** What about the EC50 [1] of the same molecule?
**A.** The EC50 was 9.2 nM.

**Q.** And the IC50 [2]?
**A.** Its IC50 is 17 nM.

**Q.** How did the IC50 [2] turn out when COc1ccccc1N1CCN(CCCNC(=O)Oc2ccc(C(=O)c3ccccc3)cc2)CC1 [Example 44, (4-benzoylphenyl) N-[3-[4-(2-methoxyphenyl)piperazin-1-yl]propyl]carbamate hydrochloride] was run?
**A.** The IC50 was 11 nM.

**Q.** How did the Emax [1] turn out when COc1ccccc1N1CCN(CCCCNC(=O)Oc2ccc3c(c2)[nH]c2ccccc23)CC1 [Example 33, 9H-carbazol-2-yl N-[4-[4-(2-methoxyphenyl)piperazin-1-yl]butyl]carbamate] was run?
**A.** The Emax was 65.9%.

**Q.** What about the EC50 [1] of the same molecule?
**A.** Its EC50 is 12 nM.

**Q.** And the IC50 [2]?
**A.** Its IC50 is 37 nM.

**Q.** Which results are given for O=C(NCCCN1CCN(c2cccc(Cl)c2Cl)CC1)Oc1ccc2c(c1)[nH]c1ccccc12 [Example 17, 9H-carbazol-2-yl N-[3-[4-(2,3-dichlorophenyl)piperazin-1-yl]propyl]carbamate]?
**A.** Emax [1]: 91%; EC50 [1]: 150 nM; IC50 [2]: 4.8 nM

**Q.** Which Emax [1] does the source give for O=C(NCCC(F)CN1CCN(c2cccc(Cl)c2Cl)CC1)Oc1ccc(-c2ccccc2)cc1 (centres unmarked) [Example 36, (4-phenylphenyl) N-[4-[4-(2,3-dichlorophenyl)piperazin-1-yl]-3-fluoro-butyl] carbamate] here?
**A.** Its Emax is 87.6%.

**Q.** And the EC50 [1]?
**A.** The EC50 was 150 nM.

**Q.** And the IC50 [2]?
**A.** The IC50 was 1.3 nM.

**Q.** O=C(NCCCCN1CCN(c2cccc(Cl)c2Cl)CC1)Oc1ccc(-c2ccccn2)cc1 [Example 24, [4-(2-pyridyl)phenyl] N-[4-[4-(2,3-dichlorophenyl)piperazin-1-yl]butyl]carbamate] was tested. Which Emax [1] did it give?
**A.** Its Emax is 70.4%.

**Q.** What about the EC50 [1] of the same molecule?
**A.** The EC50 was 5.92 nM.

**Q.** And the IC50 [2]?
**A.** Its IC50 is 0.21 nM.

**Q.** How did the Emax [1] turn out when O=C(NCCCCN1CCN(c2cccc(Cl)c2Cl)CC1)Oc1cccc(N2CCOCC2)c1 [Example 8, (3-morpholinophenyl) N-[4-[4-(2,3-dichlorophenyl)piperazin-1-yl]butyl] carbamate hydrochloride] was run?
**A.** The Emax was 83%.

**Q.** What about the EC50 [1] of the same molecule?
**A.** Its EC50 is 35 nM.

**Q.** And the IC50 [2]?
**A.** The IC50 was 3.4 nM.

**Q.** COc1ccccc1N1CCN(CCCNC(=O)Oc2ccc(Cc3ccccc3)cc2)CC1 [Example 43, (4-benzylphenyl) N-[3-[4-(2-methoxyphenyl)piperazin-1-yl]propyl]carbamate hydrochloride] was tested. Which IC50 [2] did it give?
**A.** Its IC50 is 18 nM.

**Q.** What does the source list for Cc1ccccc1N1CCN(CCCNC(=O)Oc2ccc(-c3ccccc3)cc2)CC1 [Example 15, (4-phenylphenyl) N-[3-[4-(o-tolyl)piperazin-1-yl]propyl]carbamate]?
**A.** Emax [1]: 82%; EC50 [1]: 290 nM; IC50 [2]: 4.1 nM

**Q.** What does the source list for O=C(NCCCCN1CCN(c2cccc(Cl)c2Cl)CC1)Oc1ccc2c(c1)[nH]c1ccccc12 [Example 28, 9H-carbazol-2-yl N-[4-[4-(2,3-dichlorophenyl)piperazin-1-yl]butyl]carbamate]?
**A.** Emax [1]: 89.7%; EC50 [1]: 120 nM; IC50 [2]: 8 nM

**Q.** How did the Emax [1] turn out when Cc1ccccc1N1CCN(CCCNC(=O)Oc2cccc(N3CCOCC3)c2)CC1 [Example 13, (3-morpholino phenyl) N-[3-[4-(o-tolyl)piperazin-1-yl]propyl]carbamate hydrochloride] was run?
**A.** Its Emax is 59.4%.

**Q.** What about the EC50 [1] of the same molecule?
**A.** Its EC50 is 150 nM.

**Q.** What about the IC50 [2] of the same molecule?
**A.** The IC50 was 4.4 nM.
